Test results from PubChem BioAssay AID330 (DTP/NCI, 2004).
Values joined by “and” are separate entries in the source; they are usually repeats but may differ in a detail not shown here. Identical values can stand only once. Toxic doses and inconclusive results are not listed.

System: P388 leukemia ip, CD2F1 mice, survival T/C
Experiment: NCI In Vivo Anticancer Drug Screen. Data for tumor model P388 Leukemia (intraperitoneal) in CD2F1 (CDF1) mice
Details: endpoint: median survival time, higher = longer survival
Protocol: The antitumor activity of compounds was measured in mice bearing transplantable tumors. Survival or tumor size were measured and the results are expressed as the measurement made in the treated group (T) divided by the measurement made in the vehicle treated control group (C). The tumor model used in this assay is P388 Leukemia (intraperitoneal) in CD2F1 (CDF1) mice

[1] = dose: 25.0 mg/kg/injection, schedule: Q01DX009 (ip), vehicle: saline with Tween-80
[2] = dose: 50.0 mg/kg/injection, schedule: Q01DX009 (ip), vehicle: saline with Tween-80
[3] = dose: 100.0 mg/kg/injection, schedule: Q01DX009 (ip), vehicle: saline with Tween-80
[4] = dose: 200.0 mg/kg/injection, schedule: Q01DX009 (ip), vehicle: saline with Tween-80
[5] = dose: 100.0 mg/kg/injection, schedule: Q01DX009 (ip), vehicle: saline
[6] = dose: 200.0 mg/kg/injection, schedule: Q01DX009 (ip), vehicle: saline
[7] = dose: 6.25 mg/kg/injection, schedule: Q01DX005 (ip), vehicle: Klucel (hydroxypropylcellulose) (HPC)
[8] = dose: 12.5 mg/kg/injection, schedule: Q01DX005 (ip), vehicle: Klucel (hydroxypropylcellulose) (HPC)
[9] = dose: 25.0 mg/kg/injection, schedule: Q01DX005 (ip), vehicle: Klucel (hydroxypropylcellulose) (HPC)
[10] = dose: 50.0 mg/kg/injection, schedule: Q01DX005 (ip), vehicle: Klucel (hydroxypropylcellulose) (HPC)
[11] = dose: 100.0 mg/kg/injection, schedule: Q01DX005 (ip), vehicle: Klucel (hydroxypropylcellulose) (HPC)
[12] = dose: 200.0 mg/kg/injection, schedule: Q01DX005 (ip), vehicle: Klucel (hydroxypropylcellulose) (HPC)
[13] = dose: 12.5 mg/kg/injection, schedule: Q01DX009 (ip), vehicle: water
[14] = dose: 25.0 mg/kg/injection, schedule: Q01DX009 (ip), vehicle: water
[15] = dose: 100.0 mg/kg/injection, schedule: Q01DX009 (ip), vehicle: water
[16] = dose: 50.0 mg/kg/injection, schedule: Q01DX005 (ip), vehicle: saline with Tween-80
[17] = dose: 100.0 mg/kg/injection, schedule: Q01DX005 (ip), vehicle: saline with Tween-80
[18] = dose: 200.0 mg/kg/injection, schedule: Q01DX005 (ip), vehicle: saline with Tween-80
[19] = dose: 60.0 mg/kg/injection, schedule: Q01DX005 (ip), vehicle: saline with Tween-80
[20] = dose: 60.0 mg/kg/injection, schedule: Q01DX005 (ip), vehicle: saline

SMILES: Cc1cc2nc(Cc3nc4cc(C)c(C)cc4[nH]3)[nH]c2cc1C
- T/C [1]: 90 % of control
- T/C [2]: 90 % of control
- T/C [3]: 100 % of control and 95 % of control
- T/C [4]: 90 % of control

SMILES: CC(O)C(NCNC(=O)C1=C(O)C2(O)C(=O)C3=C(O)c4c(O)cccc4C(C)(O)C3CC2C(N(C)C)C1=O)C(=O)O (centres undefined)
- T/C (dose: 25.0 mg/kg/injection, schedule: Q01DX005 (ip), vehicle: saline): 107 % of control
- T/C (dose: 50.0 mg/kg/injection, schedule: Q01DX005 (ip), vehicle: saline): 108 % of control
- T/C (dose: 100.0 mg/kg/injection, schedule: Q01DX005 (ip), vehicle: saline): 111 % of control
- T/C (dose: 100.0 mg/kg/injection, schedule: Q04DX003 (ip), vehicle: saline with Tween-80): 104 % of control
- T/C (dose: 200.0 mg/kg/injection, schedule: Q01DX005 (ip), vehicle: saline): 100 % of control
- T/C (dose: 200.0 mg/kg/injection, schedule: Q04DX003 (ip), vehicle: saline with Tween-80): 104 % of control
- T/C (dose: 400.0 mg/kg/injection, schedule: Q04DX003 (ip), vehicle: saline with Tween-80): 104 % of control

SMILES: S=c1nc(-c2nc(=S)[nH]c3c2CCCCC3)c2c([nH]1)CCCCC2
- T/C (dose: 60.0 mg/kg/injection, schedule: Q01DX005 (ip), vehicle: Klucel (hydroxypropylcellulose) (HPC)): 97 % of control
- T/C (dose: 120.0 mg/kg/injection, schedule: Q01DX005 (ip), vehicle: Klucel (hydroxypropylcellulose) (HPC)): 96 % of control
- T/C (dose: 240.0 mg/kg/injection, schedule: Q01DX005 (ip), vehicle: Klucel (hydroxypropylcellulose) (HPC)): 92 % of control

SMILES: COCCCN(Cc1cc(OC)c(OC)c(OC)c1)C(=S)Nc1cccc(Cl)c1
- T/C (dose: 50.0 mg/kg/injection, schedule: Q01DX009 (ip), vehicle: saline): 92 % of control
- T/C [5]: 90 % of control
- T/C [6]: 94 % of control

SMILES: COc1nc2ccccc2c2ccnn12
- T/C (dose: 4.0 mg/kg/injection, schedule: Q01DX009 (ip), vehicle: saline with Tween-80): 106 % of control
- T/C (dose: 8.0 mg/kg/injection, schedule: Q01DX009 (ip), vehicle: saline with Tween-80): 106 % of control
- T/C (dose: 16.0 mg/kg/injection, schedule: Q01DX009 (ip), vehicle: saline with Tween-80): 109 % of control

SMILES: COc1cc(/C=C/c2ccc(OC)c(O)c2)cc(OC)c1
- T/C [7]: 108 % of control
- T/C [8]: 103 % of control
- T/C [9]: 99 % of control
- T/C [10]: 119 % of control and 94 % of control
- T/C [11]: 98 % of control
- T/C [12]: 94 % of control

SMILES: CCCC(C(=O)OC(C)CN1C(C)CCC1C)C1CCCC1 (centres undefined)
- T/C [5]: 112 % of control
- T/C [6]: 103 % of control
- T/C (dose: 400.0 mg/kg/injection, schedule: Q01DX009 (ip), vehicle: saline): 108 % of control

SMILES: CCOP(O)(=S)OCC.[Y]
- T/C (dose: 50.0 mg/kg/injection, schedule: Q01DX001 (ip), vehicle: Klucel (hydroxypropylcellulose) (HPC)): 90 % of control
- T/C (dose: 100.0 mg/kg/injection, schedule: Q01DX001 (ip), vehicle: Klucel (hydroxypropylcellulose) (HPC)): 87 % of control
- T/C (dose: 200.0 mg/kg/injection, schedule: Q01DX001 (ip), vehicle: Klucel (hydroxypropylcellulose) (HPC)): 95 % of control

SMILES: O=C1N(CCN2CCC3(CC2)OCCO3)CCN1c1cc(Cl)cc(Cl)c1
- T/C [13]: 104 % of control and 105 % of control and 113 % of control
- T/C [14]: 105 % of control and 112 % of control and 123 % of control
- T/C [15]: 105 % of control and 110 % of control
- T/C (dose: 200.0 mg/kg/injection, schedule: Q01DX009 (ip), vehicle: water): 108 % of control

SMILES: O=CC(C(=O)c1ccccc1[N+](=O)[O-])c1ccccc1 (centres undefined)
- T/C [10]: 89 % of control
- T/C [11]: 104 % of control
- T/C [12]: 98 % of control

SMILES: CC(C)COC(=O)NC1c2ccccc2Oc2ccccc21
- T/C [16]: 95 % of control
- T/C [17]: 93 % of control
- T/C [18]: 89 % of control

SMILES: CC(C)C(N)C(=O)Nc1nncs1 (centres undefined)
- T/C (dose: 100.0 mg/kg/injection, schedule: Q04DX002 (ip), vehicle: saline): 106 % of control
- T/C (dose: 200.0 mg/kg/injection, schedule: Q04DX002 (ip), vehicle: saline): 183 % of control
- T/C (dose: 400.0 mg/kg/injection, schedule: Q04DX002 (ip), vehicle: saline): 157 % of control and 190 % of control
- T/C (dose: 600.0 mg/kg/injection, schedule: Q04DX002 (ip), vehicle: saline): 171 % of control

SMILES: CC(C)n1cccc(C#N)c1=S
- T/C [10]: 101 % of control
- T/C [11]: 98 % of control
- T/C [12]: 97 % of control

SMILES: COc1cc2cc3c4cc(OC)c(OC)cc4cc(C)[n+]3cc2cc1OC
- T/C [13]: 155 % of control
- T/C [14]: 180 % of control
- T/C (dose: 50.0 mg/kg/injection, schedule: Q01DX009 (ip), vehicle: water): 170 % of control
- T/C [15]: 163 % of control

SMILES: C=CCC1(CCC#N)C(=O)CC(C)(C)CC1=O
- T/C (dose: 100.0 mg/kg/injection, schedule: Q04DX003 (ip), vehicle: saline): 104 % of control
- T/C (dose: 200.0 mg/kg/injection, schedule: Q04DX003 (ip), vehicle: saline): 99 % of control
- T/C (dose: 400.0 mg/kg/injection, schedule: Q04DX003 (ip), vehicle: saline): 98 % of control

SMILES: Clc1cc(-c2csc(Cl)c2)cs1
- T/C [1]: 97 % of control
- T/C [2]: 103 % of control and 97 % of control
- T/C [3]: 109 % of control
- T/C [4]: 96 % of control

SMILES: C=CC(=O)OCCOCN(COCCOC(=O)C=C)c1nc(N(COCCOC(=O)C=C)COCCOC(=O)C=C)nc(N(COCCOC(=O)C=C)COCCOC(=O)C=C)n1
- T/C [16]: 99 % of control
- T/C [17]: 107 % of control

SMILES: CN1c2ccc(Br)c[c]2[Sn]([CH3])([CH3])[c]2cc(Br)ccc21
- T/C [19]: 99 % of control
- T/C (dose: 120.0 mg/kg/injection, schedule: Q01DX005 (ip), vehicle: saline with Tween-80): 100 % of control
- T/C (dose: 240.0 mg/kg/injection, schedule: Q01DX005 (ip), vehicle: saline with Tween-80): 104 % of control

SMILES: O=C(CCl)Nc1cccc(CCC(=O)c2ccccc2NC(=O)CCl)c1
- T/C (dose: 15.0 mg/kg/injection, schedule: Q01DX005 (ip), vehicle: saline): 102 % of control
- T/C (dose: 30.0 mg/kg/injection, schedule: Q01DX005 (ip), vehicle: saline): 106 % of control
- T/C [19]: 100 % of control
- T/C [20]: 100 % of control

SMILES: Nc1nc(Br)c(Br)nc1N
- T/C (dose: 100.0 mg/kg/injection, schedule: Q04DX003 (ip), vehicle: other): 100 % of control
- T/C (dose: 200.0 mg/kg/injection, schedule: Q04DX003 (ip), vehicle: other): 100 % of control
- T/C (dose: 400.0 mg/kg/injection, schedule: Q04DX003 (ip), vehicle: other): 95 % of control

SMILES: O=c1[nH]nc(SCc2ccc(Cl)cc2Cl)c(=O)[nH]1
- T/C [7]: 100 % of control
- T/C [8]: 94 % of control
- T/C [9]: 86 % of control

SMILES: CN(C)NC=O
- T/C [20]: 102 % of control
- T/C (dose: 120.0 mg/kg/injection, schedule: Q01DX005 (ip), vehicle: saline): 102 % of control
- T/C (dose: 240.0 mg/kg/injection, schedule: Q01DX005 (ip), vehicle: saline): 114 % of control

SMILES: c1ccc(OP2(Oc3ccccc3)=NP(Oc3ccccc3)(Oc3ccccc3)=NP(Oc3ccccc3)(Oc3ccccc3)=NP(Oc3ccccc3)(Oc3ccccc3)=N2)cc1
- T/C [10]: 97 % of control
- T/C [11]: 91 % of control

SMILES: Cn1c(CCCCCCCCc2c(C(=O)/C=C/c3ccccc3)c(=O)n(C)c(=O)n2C)c(C(=O)/C=C\c2ccccc2)c(=O)n(C)c1=O
- T/C [16]: 88 % of control
- T/C [17]: 90 % of control
- T/C [18]: 90 % of control

SMILES: S=C(S)n1nc(-c2ccccc2)c(N=Nc2cccc(Cl)c2Cl)c1-c1ccccc1
- T/C (dose: 100.0 mg/kg/injection, schedule: Q04DX002 (ip), vehicle: saline with Tween-80): 93 % of control
- T/C (dose: 200.0 mg/kg/injection, schedule: Q04DX002 (ip), vehicle: saline with Tween-80): 93 % of control
- T/C (dose: 400.0 mg/kg/injection, schedule: Q04DX002 (ip), vehicle: saline with Tween-80): 109 % of control

SMILES: OC(CN1CCCCC1)c1ccc(/C=C/c2ccc(Cl)cc2)cc1 (centres undefined)
- T/C (dose: 6.25 mg/kg/injection, schedule: Q01DX009 (ip), vehicle: saline): 100 % of control
- T/C (dose: 12.5 mg/kg/injection, schedule: Q01DX009 (ip), vehicle: saline): 95 % of control
- T/C (dose: 25.0 mg/kg/injection, schedule: Q01DX009 (ip), vehicle: saline): 96 % of control
